Laboratory results reported in US20250179024A1, “AMYLOID AND ASSOCIATED PATHOLOGY MODULATORS AND METHODS THEREOF” (Jawaharlal Nehru Centre for Advanced Scientific Research, priority 2022, published 2025).

How the values were obtained:
[1] = molecular target: T1, Aβ fibrils (Homo sapiens, UniProt P05067); assay: Dot blot assay of Aβ fibrillar aggregation inhibition (OC antibody); assay type: biochemical; conditions: Aβ 10 μM; for inhibition of the formation of Aβ fibrils: NMIs 20 μM, PBS pH 7.4, 37° C., 48 h
T1 construct: is a 42 amino acid proteolytic product from the amyloid precursor protein; purchased Invitrogen
Description: Aggregation modulation by toxic Aβ aggregates were assessed and were quantified by dot blot assay. Aβ peptide (10 μM) was dissolved in phosphate buffered saline (PBS, 10 mM, pH 7.4), incubated alone and with NMIs (20 μM) at 37° C. for 48 h. For concentration dependent inhibition, 10 μM Aβ peptide was incubated with 1, 2, 5, 10 and 20 μM of NMIs and incubated. Samples for oligomer inhibition studies were prepared by incubating Aβ alone and with NMIs at 4° C. for 24 and subjected to dot blot analysis. For dissolution studies, Aβ peptide alone was incubated in PBS for 48 h to prepare fibrils and then incubated with NMIs further for 48 h. For dot blot experiment, 5 μL of sample was blotted on activated PVDF (polyvinylidene fluoride) membrane in triplicates and air dried. The membrane was blocked with skimmed milk powder for 1 h at room temperature. The blot paper was washed with tris-buffered saline with 0.01% Tween 20 (TBST) three times for 5 min. Blot paper was treated with fibril specific OC primary antibody (Rabbit, 1:1000 dilution) overnight at 4° C. For oligomers blot A11 anti-oligomer antibody (Rabbit 1:1000) was used. Blot was washed thrice with TBST and treated with HRP-conjugated antirabbit secondary antibody (1:5000 dilutions) for 1 h at room temperature. The bolt was washed thrice for 5 min with TBST and developed with ECL reagent (Biorad) and imaged with ChemiDoc BioRad gel documentation system in autoexposure mode. Blots were analyzed and quantified by ImageJ software. The ability of the NMIs, the compounds of the present disclosure M1-M4 to inhibit Aβ aggregation and dissolve the preformed fibrillar aggregates was evaluated by dot blot assay as explained in Example 2 above. Aβ (10 μM) was incubated alone and with NMIs (20 μM) in phosphate buffer saline (PBS, 10 mM and pH 7.4) at 37° C. for 48 h to form Aβ fibrillar aggregates. The samples were blotted and probed with fibril-selective OC antibody (rabbit anti-human amyloid fibrils). […] M3 was further assessed for inhibitory effect at lower concentrations. […] It has been observed that the oligomers are a highly toxic species compared to Aβ fibrillar aggregates. The ability of NMIs (M3) to inhibit the formation of Aβ oligomers was assessed by dot blot assay. Aβ peptide (10 μM) was incubated with NMIs at 4° C. for 24 h followed by probing with A11 oligomer-specific antibody. […] Native PAGE and western blot analysis was carried out to understand the size distribution of Aβ aggregated species. […] In order to analyse the higher order aggregates not permeable in the gel matrix and the morphological characteristics, Aβ samples were subjected to atomic force microscopy (AFM) imaging.

[2] = test system: SH-SY5Y cells; assay: In cellulo antioxidant assay, rescue from H2O2 induced cell death (MTT); assay type: cell-based; conditions: H2O2 200 μM, NMIs 20 μM, 18 h; H2O2 treated cells ~72%
Description: To assess in cellulo antioxidant activity of NMIs, rescue of neuronal cells from H2O2 induced cell death was assessed by MTT assay. The cells were seeded onto 96 well plate at seeding density of 25,000 cells per well. After 24 h cells were treated with H2O2 (200 μM) alone and with NMIs (20 μM) for 18 h. H2O2 treatment result in neuronal cell death and potent antioxidant molecule rescue cells. The cell viability was assessed by MTT assay and percentage cell viability was calculated. ABTS (λmax at 734 nm) radical scavenging assay assessed the ability of NMIs to quench nitrogen radicals (RNS). […] These in vitro experiments have established M1 and M3 as effective antioxidants and further their ability to scavenge ROS in cellulo was assessed. Treatment of cells with H2O2 was known to generate ROS and cause DNA damage, protein oxidation, lipid peroxidation and mitochondrial dysfunction, which led to cell death. The neuronal cells were treated with H2O2 (200 μM) alone and with NMIs (20 μM) for 18 h and cell viability by MTT assay. […] The production of excess ROS by Aβ results in oxidative stress and elicits stress response.

[3] = Metal chelation by UV-visible absorbance and fluorescence spectra; assay type: physicochemical; conditions: for interaction with Cu (II) and Zn (II), change in absorbance spectra / chelation among different physiologically relevant metals, absorbance: NMIs 20 μM; for chelation among different physiologically relevant metals, absorbance: metals 40 μM
Source text: The compounds of the present disclosure (NMIs) were designed to chelate with metals (Cu and Zn) and alleviate the metal-dependent Aβ toxicity. […] The change in absorbance and fluorescence spectra of NMIs were monitored to understand the interaction with Cu(II) and Zn(II). […] The fluorescence intensity of M3 at 525 nm decreased with the increasing concentration of Cu(II) or Zn(II) (FIGS. 6(A & B)).

[4] = test system: SH-SY5Y cells; assay: Neuronal cell rescue from Aβ toxicity (MTT); assay type: cell-based; conditions: Aβ 10 μM
Description: Cell rescue from Aβ toxicity by NMIs were assessed in SH-SY5Y cells. The cells were seeded into 96 well plate at cell density of 25,000 cells per well and after 24 h the media was replaced with DMEM-F12 with low serum (2.5% FBS). After 6 h, cells were treated with Aβ (10 μM) alone and with NMIs (20 μM) in low serum media. Different concentrations of compound (10, 20 and 50 μM) were used to treat cells. For metal dependent studies, Aβ (10 μM) with metals (20 μM) in the absence and presence of NMIs (20 μM) was treated. The cells were incubated for 30 h and MTT assay was performed to calculate the percentage cell viability.
Compounds of the present disclosure (M1 to M4) were evaluated for their ability to rescue neuronal cells from Aβ toxicity by MTT assay.
Further, the effect of concentration of compounds of the present disclosure on the cell rescue was assessed. […] The ability of NMIs to rescue cells from metal-dependent Aβ toxicity were assessed in the presence of Cu (II) and Zn (II). Cells were treated with Aβ (10 μM) along with metal ions (20 μM) and NMIs (20 μM) for 30 h. Aβ in the presence of Cu (II) reduced cell viability to ˜62% and M3 treatment had rescued cells with viability to 85% (FIG. 12C). Aβ with Zn (II) viability reduced to ˜61% and M3 treatment rescued cells by improving the viability to ˜79% (FIG. 12D). […] These in-cellulo experiments confirmed the ability of M3 to effectively rescue neuronal cells from metal-independent and dependent Aβ toxicity.

[5] = modulators 20 μM, Aβ alone ~52%, FIG. 12A

T1 sequence (P05067 672-713 limits assumed): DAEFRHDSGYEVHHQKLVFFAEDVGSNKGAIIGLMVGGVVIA

Structure (SMILES)	inhibition of the formation of Aβ fibrils [1]	cell viability [2]	interaction with Cu (II) and Zn (II), change in absorbance spectra ([3]; Cu or Zn 2.5 to 40 μM)	chelation among different physiologically relevant metals, absorbance [3]	cell viability [4, 5]	IC50 [1]	inhibition of Aβ aggregation ([1]; 0.1 molar ratio)	inhibition of Aβ aggregation ([1]; 0.2 molar ratio)	inhibition of Aβ aggregation ([1]; 0.5 molar ratio)	inhibition of Aβ aggregation ([1]; 1 molar ratio)	inhibition of Aβ aggregation ([1]; 2 molar ratio)	fluorescence intensity at 525 nm with increasing concentration of Cu(II) or Zn(II) ([3]; 20 μM, Cu or Zn 2.5 to 40 μM)	cell viability ([4]; 50 μM compound, control 54%, FIG. 12B)	viability at 5 µM ([4]; Homo sapiens, SH-SY5Y, 5 μM compound, control 54%, FIG. 12B)	viability at 10 µM ([4]; Homo sapiens, SH-SY5Y, 10 μM compound, control 54%, FIG. 12B)	viability at 20 µM ([4]; Homo sapiens, SH-SY5Y, 20 μM compound, control 54%, FIG. 12B)
CN(C)c1ccc2c3c(cccc13)C(=O)N(CCc1ccc(O)c(O)c1)C2=O [M1, 2-(3,4-dihydroxyphenethyl)-6-(dimethylamino)-1H-benzo[de]isoquinoline-1,3(2H)-dione]	~95%	89%	effectively interacted with Cu (II) and Zn (II)	selectively chelated with Cu(II) and Zn (II)	lowered alleviation of the Aβ toxicity	–	–	–	–	–	–	–	–	–	–	–
O=C1c2cccc3c(N(Cc4ccccn4)Cc4ccccn4)ccc(c23)C(=O)N1CCc1ccc(O)c(O)c1 [M3, 6-(bis(pyridin-2-ylmethyl)amino)-2-(3,4-dihydroxyphenethyl)-1H-benzo[de]isoquinoline-1,3(2H)-dione]	94%	91%	effectively interacted with Cu (II) and Zn (II)	selectively chelated with Cu(II) and Zn (II)	~75%	1000 nM	37%	42%	55%	74%	90%	decreased	near-complete rescue	68%	70%	83%
